From ChEMBL document CHEMBL5724696, “Autophagy assay results for EUbOPEN Chemogenomics Library” (2024)
Values joined by “and” are separate entries in the source; they are usually repeats but may differ in a detail not shown here. Identical values can stand only once.

Legend:
Assay type in all cases: functional, Homo sapiens
U2OS [1] = assay: (§1) Here: values are normalized to the negative (DMSO; defined as 0% autophagy induction) and positive (250nM Torin1; mTOR inhibitor; defined as maximal inducer of autophagy = 100%) control compounds and represented as % of autophagy induction. […] The impact of autophagy induction on cells is complex and depends on the affected target. As such, the magnitude of a phenotype may not be equally mirrored in the %-value of autophagy induction and vice versa. The dynamics of the induction may indicate the mode of activation: e.g. activation via phosphorylation or a signaling cascade may occur fast, while activation via transcription factors may take considerably longer. […] Of note, treatment concentrations may be sub-optimal for specific compounds, leading to false negative annotations.; conditions: Culturing Media DMEM, 1 % Penicillin/Streptomycin, 10% Fetal bovin serum Add-On: No, Screening Media Control DMEM, Screening Media Samples DMEM
TERT-RPE1 = assay: as §1; conditions: Culturing Media DMEM/F12 (1:1), 1 % Penicillin/Streptomycin, 10% Fetal bovin serum Add-On: No, Screening Media Control DMEM/F12 (1:1), Screening Media Samples DMEM/F12 (1:1)
U2OS [2] = assay: as §1; conditions: Culturing Media DMEM, 1 % Penicillin/Streptomycin, 10% Fetal bovin serum Add-On: No, Screening Media Control DMEM, Screening Media Samples DMEM; remark: listed apart in the source
[3] = Compound Concentration 0.5 uM, Timepoint 12 hours
[4] = Compound Concentration 0.5 uM, Timepoint 24 hours
[5] = Compound Concentration 0.5 uM, Timepoint 36 hours
[6] = Compound Concentration 0.5 uM, Timepoint 60 hours
[7] = Compound Concentration 2 uM, Timepoint 12 hours
[8] = Compound Concentration 2 uM, Timepoint 24 hours
[9] = Compound Concentration 2 uM, Timepoint 36 hours
[10] = Compound Concentration 2 uM, Timepoint 60 hours
[11] = Compound Concentration 10 uM, Timepoint 12 hours
[12] = Compound Concentration 10 uM, Timepoint 24 hours
[13] = Compound Concentration 10 uM, Timepoint 36 hours
[14] = Compound Concentration 10 uM, Timepoint 60 hours

SMILES	autophagy induction (U2OS [1]; [3])	autophagy induction (U2OS [1]; [4])	autophagy induction (U2OS [1]; [5])	autophagy induction (U2OS [1]; [6])	autophagy induction (U2OS [1]; [7])	autophagy induction (U2OS [1]; [8])	autophagy induction (U2OS [1]; [9])	autophagy induction (U2OS [1]; [10])	autophagy induction (U2OS [1]; [11])	autophagy induction (U2OS [1]; [12])	autophagy induction (U2OS [1]; [13])	autophagy induction (U2OS [1]; [14])	autophagy induction (U2OS [2]; [3])	autophagy induction (U2OS [2]; [4])	autophagy induction (U2OS [2]; [5])	autophagy induction (U2OS [2]; [6])	autophagy induction (U2OS [2]; [7])	autophagy induction (U2OS [2]; [8])	autophagy induction (U2OS [2]; [9])	autophagy induction (U2OS [2]; [10])	also measured
Cc1cn2cc(CC(=O)N3CCC4(CC3)CN(Cc3ccc(-n5nccn5)cc3Cl)C4)nc2s1	-19.4257%	-11.2688%	-14.8033%	-9.0407%	2.217%	1.46%	0.9512%	5.325%	-2.971%	3.988%	2.68%	3.422%	1.123%	-3.762%	-1.928%	-1.19%	-4.678%	-1.951%	-1.585%	-1.336%	autophagy induction (TERT-RPE1; [3]): -2.947%; autophagy induction (TERT-RPE1; [4]): -6.082%; autophagy induction (TERT-RPE1; [5]): -10.2542%; autophagy induction (TERT-RPE1; [6]): -15.5621%; autophagy induction (TERT-RPE1; [7]): -4.023%; autophagy induction (TERT-RPE1; [8]): -6.112%; autophagy induction (TERT-RPE1; [9]): -7.965%; autophagy induction (TERT-RPE1; [10]): -11.2776%; autophagy induction (TERT-RPE1; [11]): 6.864%; autophagy induction (TERT-RPE1; [12]): 5.224%; autophagy induction (TERT-RPE1; [13]): 5.8937%; autophagy induction (TERT-RPE1; [14]): 9.679%; autophagy induction (U2OS [2]; [11]): -3.342%; autophagy induction (U2OS [2]; [12]): -3.411%; autophagy induction (U2OS [2]; [13]): -3.208%; autophagy induction (U2OS [2]; [14]): -4.891%
c1cc(CN2CCCNCCNCCCNCC2)ccc1CN1CCCNCCNCCCNCC1 [PLERIXAFOR]	9.361%	4.086%	3.942%	-10.4654%	-10.5746%	-17.2139%	-19.8311%	-28.2789%	-19.8514%	-21.1534%	-25.1466%	-33.2742%	1.944%	-0.47%	1403.21%	-0.2952%	-1.895%	-4.5042%	-61.4276%	-2.96%	autophagy induction (TERT-RPE1; Compound Concentration 0.5 uM, Timepoint 12 hours, 12 h, 0.5 µM): -4.475% and 7.798%; autophagy induction (TERT-RPE1; Compound Concentration 0.5 uM, Timepoint 24 hours, 24 h, 0.5 µM): -3.816% and 9.011%; autophagy induction (TERT-RPE1; Compound Concentration 0.5 uM, Timepoint 36 hours, 36 h, 0.5 µM): -5.185% and 14.9232%; autophagy induction (TERT-RPE1; Compound Concentration 0.5 uM, Timepoint 60 hours, 60 h, 0.5 µM): -8.266% and 14.0932%; autophagy induction (TERT-RPE1; Compound Concentration 2 uM, Timepoint 12 hours, 12 h, 2 µM): -1.002% and 11.2768%; autophagy induction (TERT-RPE1; Compound Concentration 2 uM, Timepoint 24 hours, 24 h, 2 µM): -1.015% and 15.5767%; autophagy induction (TERT-RPE1; Compound Concentration 2 uM, Timepoint 36 hours, 36 h, 2 µM): -0.9806% and 19.0771%; autophagy induction (TERT-RPE1; Compound Concentration 2 uM, Timepoint 60 hours, 60 h, 2 µM): -1.796% and 21.8048%; autophagy induction (TERT-RPE1; Compound Concentration 10 uM, Timepoint 12 hours, 12 h, 10 µM): -0.2124% and 10.1362%; autophagy induction (U2OS [2]; [11]): -9.041%; autophagy induction (U2OS [2]; [12]): -7.066%; autophagy induction (U2OS [2]; [13]): -62.672%; autophagy induction (U2OS [2]; [14]): -3.919%
